Assay results: paper PMC4179164, “Ophiobolin A from Bipolaris oryzae Perturbs Motility and Membrane Integrities of Porcine Sperm and Induces Cell Death on Mammalian Somatic Cell Lines” (Toxins, 2014)
Values after ≈ are worked out from the molar mass of the structure shown.

What was measured:
[1] = test system: boar spermatozoa; experiment: Cell membrane permeability assay on motile sperm cells (PI staining); type: cell-based; settings: boar spermatozoa, motile at 37 °C, 2 h; read-out: Toxic endpoint EC50, Permeability to PI on motile cells
Method: To test the effect of OPA exposure on sperm cells in physiological conditions (swimming at 37 °C) the plasma membrane disruption on motile sperm cells was measured with the viability PI stain, where the loss of plasma membrane integrity was detected as appearance of red color stained nuclei in the damaged cells. In this assay, sperm cells were exposed to OPA at 37 °C and motility of the exposed sperm cells was induced and maintained for 2 h.
Cell membrane permeability assay on motile sperm cells was inspected by staining with PI (Molecular Probes, Eugene, OR, USA) in sperm cells induced to swim by shaking at 37 °C. One hundred and fifty μL aliquots of commercial extended boar semen with a density of 27 × 10^6 sperms mL^−1 were pipetted into microtiter plate wells and serially diluted methanolic solution of OPA were added in the concentration range of 200 ng mL^−1 to 4 μg mL^−1 including 6 levels and an additional methanol blank, and pre-incubated for 2 h on orbital shaker (Innova 5000 new Brunswick Scientific, Enfield, CT, USA) (160 rpm) at 37 °C. Four parallel measurements were done for each dilution. One ml PI solution (1 mg mL^−1 in Dulbeco’s phosphate buffered saline) was mixed with 3 mL of […] Dulbeco’s phosphate buffered saline. One hundred and fifty μL of this stain mixture was added to 150 μL of exposed boar semen. This suspension was incubated for 15 min at 37 °C in dark and measured using a microplate reader (Fluoroskan Ascent, Thermo Scientific, Vantaa, Finland) at excitation and emission wavelengths of 544 nm and 600 nm, respectively. For observing plasma membrane damage by PI staining frozen-thawed semen was used as a positive control (for mortality of 100%) representing the maximal fluorescence emitted by the cells permeable to PI and Dulbeco’s phosphate buffered saline was applied as background control (blank). Loss of viability in the sample was calculated as described in Alm et al.. The frozen sample represented 100% loss of viability. The assay was calibrated with triclosan (Sigma Chemical Co., St. Louis, MO, USA), in 5 parallel tests, the EC50 was 2 μg mL^−1 (SD ± 0.6). Cell membrane permeability assay on static sperm cells at room temperature was carried out by viability staining with PI and calcein-AM (Molecular Probes, Eugene, OR, USA) according to Hoornstra et al. in same concentration range and levels described above.

[2] = Mammalian somatic cell toxicity assay calibration (cell line not stated); type: cell-based; settings: 10 parallel tests, SD ± 3.4, cell line not stated
Method: Cytotoxicity against somatic cells was tested with feline fetus lung cells (FFL) cultivated as described by Andersson et al. and murine neuroblastoma cells (MNA) as described by Kulonen et al. as well as porcine kidney tubular epithelial cell line (PK-15), cultured as reported earlier. All somatic cell lines were maintained in an atmosphere of 95% air, 5% CO2 and 95% relative humidity at 37 °C on RPMI 1640 (complete medium) in a cell culture cabinet (Heracell 150i; Thermo Fisher Scientific, Vantaa, Finland). The detached cells were seeded onto 96 well microtiter plates and exposed to the purified OPA, the final concentration of which ranged from 48.8 ng mL^−1 to 25 μg mL^−1 containing 10 levels in methanol. After incubating the plates for one day at 37 °C, inhibition of cell proliferation was inspected in phase contrast microscope. EC100 for inhibition of proliferation was easy to observe as absence of cell monolayer and absence of intact cells in the well. EC0 was also easy to observe as an intact cell monolayer indistinguishable from the control. In microscope the determining of EC50 was more difficult. […] Then, the plates were analyzed by a microtiter plate reader (Fluoroskan Ascent, Thermo Scientific, Vantaa, Finland) at the excitation and emission wavelengths of 544 nm and 590 nm, respectively. […]

[3] = test system: boar spermatozoa; experiment: Sperm motility inhibition assay (progressive and rapid motility); type: cell-based; settings: 24 h, boar spermatozoa, 24 h exposure at room temperature, read-out: Toxic endpoint EC50, Motility inhibition (24 h)
Method: Furthermore, their physiological characters including their motility are influenced mainly by membrane potentials and ion fluxes. Thus, the change of sperm motility is able to sensitively indicate the substances causing mitochondrial membrane depolarization even at sublethal doses, which is undetectable with other cell lines. Motility of the spermatozoa was judged after exposure of 30 min and 24 h at room temperature with minor modification of a previously described method.
The sperm motility inhibition assay was done as reported by Andersson et al.. Commercial boar semen obtained from Figen Oy Finland extended in MR-A (Kubus, S.A., Madrid, Spain) containing 27 × 10^6 spermatozoa·mL^−1 was used. The purified OPA was diluted by serial dilutions in methanol obtaining two ranges of concentrations with 4-4 levels from 2500 μg mL^−1 to 250.0 μg mL^−1 and from 50 μg mL^−1 to 5.0 μg mL^−1, for short and long time exposures, respectively. Twenty μL of each dilution was administered to 2 mL of MR-A-diluted boar semen resulting approximately 100 times dilution of the original stock solutions; 20 μL of methanol was added to spermatozoa in the same way as a blank assay. The samples were incubated for 30 min and 24 h at room temperature for short and long term exposure assays, respectively. After exposure, motility was induced in the sperm cells by incubation in 37 °C for 5 min and shaking to provide the sperm cells with oxygen. […]
The above described subjective motility assay was calibrated with an automatic Hamilton Thorne sperm motility analyzer (HTM-S, ver. 7.2; Hamilton-Thorn Research, Danvers, MA, USA). […] Thus the protocol for assessing sperm tail beating as a measure of motility inhibition gave 99% similarity to measurements of the proportion of rapidly motile spermatozoa done with Hamilton Thorne sperm analyzer (HTM-S, ver. 7.2; Hamilton-Thorn Research, Danvers, MA, USA) Toxicity was expressed as the endpoint concentration of the OPA solution, where the progressive and rapid motility of the sperm cells were <50% of the vehicle exposed sperm cells. […]

[4] = test system: boar spermatozoa; settings: ref 4 (alamethicin, trilongin), 5 (acrebol), 6 (enniatin B); cited from earlier work
[5] = test system: boar spermatozoa; settings: ref 4 (alamethicin, trilongin), 5 (acrebol), 6 (enniatin B); cited from earlier work; remark: listed apart in the source
[6] = test system: porcine kidney (PK-15) cells; settings: ref 4 (alamethicin, trilongin), 5 (acrebol), 6 (enniatin B); cited from earlier work
[7] = test system: boar spermatozoa; settings: ref 4 (alamethicin, trilongin), 5 (acrebol), 6 (enniatin B); cited from earlier work; remark: listed apart in the source
[8] = test system: boar spermatozoa; settings: ref 4 (alamethicin, trilongin), 5 (acrebol), 6 (enniatin B), cited from earlier work
[9] = test system: boar spermatozoa; settings: ref 4 (alamethicin), 6 (enniatin B); cited from earlier work

| Compound | EC50 [1] [µg/mL] | EC50 at 3 days [2] [µg/mL] | EC50 [3] [µg/mL] | Toxic endpoint EC50, Shivering tail beating induction [4] | Toxic endpoint EC50, Dissipation of ΔΨm [5] [µg/mL] | Toxic endpoint EC50, Cytotoxicity, PK-15 cells [6] [µg/mL] | Toxic endpoint EC50, Permeability to PI on static cells [7] [µg/mL] | Toxic endpoint EC50, Motility inhibition (30 min) [8] [µg/mL] | Toxic endpoint EC50, Motility inhibition (24 h) [8] [µg/mL] | Toxic endpoint EC50, Permeability to PI on motile cells [9] [µg/mL] |
| --- | --- | --- | --- | --- | --- | --- | --- | --- | --- | --- |
| Oc1cc(Cl)ccc1Oc1ccc(Cl)cc1Cl [triclosan] | 2 (≈ 6.91 µM) | 9.4 (≈ 32.5 µM) | 1 (≈ 3.45 µM) | – | – | – | – | – | – | – |
| Alamethicin | – | – | – | None | 0.2 | 8 | 0.2 | 1 | 0.2 | ≤0.5 |
| Acrebol | – | – | – | None | 0.8 | ≥10 | >4 | 2 | 0.1 | – |
| CC(C)[C@H]1C(=O)O[C@H](C(C)C)C(=O)N(C)[C@@H](C(C)C)C(=O)O[C@H](C(C)C)C(=O)N(C)[C@@H](C(C)C)C(=O)O[C@H](C(C)C)C(=O)N1C [Enniatin B] | – | – | – | None | 5 | 60 | >50 | >10 | 5 | >20 |
